Assay results published in patent US7071180B2, “Certain arylaliphatic and heteroaryl-aliphatic piperazinyl pyrazines and their use in the treatment of serotonin-related diseases” (Biovitrum AB, priority 1999, dated 2006).
Counter-ions that a name gives are not always drawn. Like-named read-outs stand apart in the source and are kept apart here.

Experiments:
human 5-HT2c receptor = molecular target: T1, human 5-HT2c receptor (Homo sapiens, UniProt P28335); test: 5-HT2c receptor affinity assay (displacement of 3H-labelled 5-HT, Scintillation Proximity Assay); details: displacement of 3H-5-HT from membranes of transfected HEK293 cells expressing human 5-HT2c receptor; non-specific binding 5 μM mianserin
T1 construct: expressed in transfected cells
T1 sequence (P28335 33-458): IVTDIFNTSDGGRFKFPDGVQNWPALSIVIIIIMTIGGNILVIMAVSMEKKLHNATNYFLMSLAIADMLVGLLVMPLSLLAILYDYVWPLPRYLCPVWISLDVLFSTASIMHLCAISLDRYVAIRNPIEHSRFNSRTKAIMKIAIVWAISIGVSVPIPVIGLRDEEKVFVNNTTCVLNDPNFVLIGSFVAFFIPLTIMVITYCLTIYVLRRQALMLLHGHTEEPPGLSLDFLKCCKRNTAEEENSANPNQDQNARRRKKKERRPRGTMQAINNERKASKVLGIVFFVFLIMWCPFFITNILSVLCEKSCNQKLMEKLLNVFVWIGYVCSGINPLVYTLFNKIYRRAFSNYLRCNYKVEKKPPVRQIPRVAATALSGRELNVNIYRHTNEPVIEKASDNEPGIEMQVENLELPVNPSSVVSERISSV
Description: The 5-HT2c receptor affinity of compounds in the Examples was determined in competition experiments, where the ability of each compound in serial dilution to displace ^3H-labelled 5-HT, bound to membranes prepared from a transfected HEK293 cell line stably expressing the human 5-HT2c receptor protein was monitored by Scintillation Proximity Assay technology. Non-specific binding was defined using 5 μM mianserin. Typically, the 5HT2c receptor affinity values (Ki, nM) were in the range of 1 nM to 1500 nM.

[1] = cited from earlier work
5-HT2c receptor [2] = molecular target: T2, 5-HT2c receptor (Mus musculus, UniProt P34968); details: mice that express the normal 5-HT2c receptor; cited from earlier work
T2 construct: mice that express the normal 5-HT2c receptor; host or cells: mice (in vivo)
T2 sequence (P34968 33-459): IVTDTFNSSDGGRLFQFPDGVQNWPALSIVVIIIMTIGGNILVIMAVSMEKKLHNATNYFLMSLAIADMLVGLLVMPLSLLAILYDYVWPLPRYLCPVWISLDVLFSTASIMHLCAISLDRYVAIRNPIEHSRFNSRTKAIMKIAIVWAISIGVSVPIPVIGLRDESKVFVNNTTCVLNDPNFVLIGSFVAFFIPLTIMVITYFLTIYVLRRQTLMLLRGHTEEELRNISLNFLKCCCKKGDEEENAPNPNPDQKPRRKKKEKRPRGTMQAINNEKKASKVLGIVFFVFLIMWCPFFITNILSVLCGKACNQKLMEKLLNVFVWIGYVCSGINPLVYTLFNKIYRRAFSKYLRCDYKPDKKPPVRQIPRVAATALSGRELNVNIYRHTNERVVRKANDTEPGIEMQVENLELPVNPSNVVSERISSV

5-HT2c receptor [3] = details: mice expressing the mutated inactive form of the 5-HT2c receptor; cited from earlier work

Structure (SMILES) | Ki (human 5-HT2c receptor) [nM] | melting point | also measured
c1ccc2oc(COc3nccnc3N3CCNCC3)cc2c1 [Example 122, 2-(Benzofuran-2-ylmethoxy)-3-(1-piperazinyl)pyrazine] | 45 | – | –
CCN[C@@H](C)Cc1cccc(C(F)(F)F)c1 [dexfenfluramine] | – | – | body weight effect ([1]; controlled studies): weight reduction
c1ccc(COc2cccc(OCCOc3nccnc3N3CCNCC3)c2)cc1 [Example 231, 2-{2-[3-(Benzyloxy)phenoxy]ethoxy}-3-(1-piperazinyl)pyrazine] | 12 | – | –
c1ccc(CCCOc2nccnc2N2CCNCC2)nc1 [Example 125, 2-(1-piperazinyl)-3-[3-(2-pyridinyl)propoxy]pyrazine] | 171 | – | –
Clc1cccc(N2CCNCC2)c1 [mCPP, m-chlorophenylpiperazine] | – | – | body weight effect (5-HT2c receptor [2]): causes weight loss; body weight effect (5-HT2c receptor [3]): lacks activity; body weight effect ([1]; obese subjects, after 2 weeks of treatment): slight but sustained reduction in body weight
C[C@@H]1CNCCN1c1nccnc1OCCOc1cccnc1Cl [Example 194, (2R)-1-(3-{2-[(2-Chloro-3-pyridinyl)oxy]ethoxy}-2-pyrazinyl)-2-methylpiperazine] | 5 | – | –
c1ccc2c(c1)NCC(COc1nc3ccccc3nc1N1CCNCC1)O2 (stereo not shown) [Example 167, 2-(3,4-Dihydro-2H-1,4-benzoxazin-2-ylmethoxy)-3-(1-piperazinyl)quinoxaline] | 34 | – | –
COc1cc(OC)cc(OCCOc2nccnc2N2CCNCC2)c1 [Example 57, 2-(3,5-Dimethoxyphenoxy)ethyl 3-(1-piperazinyl)-2-pyrazinyl ether] | 24 | – | –
c1cncc(OCCOc2nccnc2N2CCNCC2)c1 [Example 150, 2-(3-Pyridyloxy)ethyl 3-(1-piperazinyl)-2-pyrazinyl ether] | 50 | – | –
c1cc(OCCOc2nccnc2N2CCNCC2)ccn1 [Example 151, 2-(4-Pyridyloxy)ethyl 3-(1-piperazinyl)-2-pyrazinyl ether] | 185 | – | –
NC1CCN(c2nccnc2OCCOc2ccccc2Cl)C1 (stereo not shown) [Example 23, 2-(2-Chlorophenoxy)ethyl 3-(3-amino-1-pyrrolidinyl)-2-pyrazinyl ether] | 377 | – | –
C[C@@H]1CNCCN1c1nccnc1OCCOc1cccnc1 [Example 173, (2R)-Methyl-1-{3-[2-(3-pyridinyloxy)ethoxy]-2-pyrazinyl}piperazine] | 16 | – | –
O=C1CCc2c(OCCOc3nccnc3N3CCNCC3)cccc21 [Example 82, 2-(1-Oxoindanyl-4-yloxy)ethyl 3-(1-piperazinyl)-2-pyrazinyl ether] | 116 | – | –
Cc1nc(OCCOc2ccccc2)c(N2CCNCC2)nc1C [Example 183, 5,6-Dimethyl-2-(2-phenoxyethoxy)-3-(1-piperazinyl)pyrazine] | 10 | – | –
CNCCC(Oc1ccc(C(F)(F)F)cc1)c1ccccc1 (stereo not shown) [fluoxetine] | – | – | body weight effect ([1]; controlled studies): weight reduction
CN(CCOc1ccccc1)c1nccnc1N1CCNCC1 (as salt: fumarate) [Example 47, N-Methyl-N-(2-phenoxyethyl)-3-(1-piperazinyl)-2-pyrazinamine] | – | 154 °C | –
Fc1cc(F)cc(OCCOc2nccnc2N2CCNCC2)c1 (as salt: toluenesulfonate) [Example 114, 2-[2-(3,5-Difluorophenoxy)ethoxy]-3-(1-piperazinyl)pyrazine] | – | 118 to 119 °C | –
c1ccc(OCCCCOc2nccnc2N2CCNCC2)cc1 (as salt: hydrochloride) [Example 98, 4-(Phenoxy)butyl 3-(1-piperazinyl)-2-pyrazinyl ether] | – | 129 to 131 °C | –
c1ccc2c(c1)OC(COc1nccnc1N1CCNCC1)CS2 (stereo not shown) (as salt: fumarate) [Example 132, 2-(2,3-Dihydro-1,4-benzoxathiin-2-ylmethoxy)-3-(1-piperazinyl)pyrazine] | – | 178 to 179 °C | –
c1ccc2c(OCCOc3nccnc3N3CCNCC3)csc2c1 (as salt: maleate) [Example 156, 2-[2-(1-Benzothien-3-yloxy)ethoxy]-3-(1-piperazinyl)pyrazine] | – | 147 to 149 °C | –
Nc1cc(OCCOc2nccnc2N2CCNCC2)c2ccccc2n1 (as salt: hydrochloride) [Example 160, 4-(2-{[3-(1-piperazinyl)-2-pyrazinyl]oxy}ethoxy)-2-quinolinamine] | – | 156 °C (dec.) | –
COc1ccccc1/C=C/COc1nccnc1N1CCNCC1 (as salt: maleate) [Example 212, 2-{[(2E)-3-(2-Methoxyphenyl)-2-propenyl]oxy}-3-(1-piperazinyl)pyrazine] | – | 136 °C (dec.) | –
c1ccc(Nc2ccc(OCCOc3nccnc3N3CCNCC3)cc2)cc1 (as salt: maleate) [Example 111, N-Phenyl-4-(2-{[3-(1-piperazinyl)-2-pyrazinyl]oxy}ethoxy)aniline] | – | 132 to 133 °C | –
C[C@@H]1CNCCN1c1nccnc1OCCOc1cccnc1 (as salt: hydrochloride) [Example 173, (2R)-Methyl-1-{3-[2-(3-pyridinyloxy)ethoxy]-2-pyrazinyl}piperazine] | – | 180 to 183 °C | –
c1cc(OCCOc2nccnc2N2CCNCC2)ccn1 (as salt: hydrochloride) [Example 151, 2-(4-Pyridyloxy)ethyl 3-(1-piperazinyl)-2-pyrazinyl ether] | – | 170 °C (dec.) | –
c1ccc(OCCOc2cccnc2N2CCNCC2)cc1 (as salt: hydrochloride) [Example 185, 1-[3-(2-Phenoxyethoxy)-2-pyridinyl]piperazine] | – | 91 to 120 °C | –
